# Reference: ChEMBL document CHEMBL1201862, “PubChem BioAssay data set” (2004)
# Active and inactive are the calls of the source.
# Tests used:
# Format in all cases: functional
# [1] = target: T1, Heat shock factor protein 1 (Mus musculus, UniProt P38532); assay: decrease of HSF1-responsive luciferase luminescence – cell-based, NIH3T3, dose retest, confirmation (AID 2382);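 also: NIH3T3 fibroblasts with HSF1-driven luciferase reporter stressed by proteasome inhibitor MG132; luminescence from HSF1-driven luciferase expression after 8 hours of MG132 stress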
# T1 sequence (P38532 whole entry): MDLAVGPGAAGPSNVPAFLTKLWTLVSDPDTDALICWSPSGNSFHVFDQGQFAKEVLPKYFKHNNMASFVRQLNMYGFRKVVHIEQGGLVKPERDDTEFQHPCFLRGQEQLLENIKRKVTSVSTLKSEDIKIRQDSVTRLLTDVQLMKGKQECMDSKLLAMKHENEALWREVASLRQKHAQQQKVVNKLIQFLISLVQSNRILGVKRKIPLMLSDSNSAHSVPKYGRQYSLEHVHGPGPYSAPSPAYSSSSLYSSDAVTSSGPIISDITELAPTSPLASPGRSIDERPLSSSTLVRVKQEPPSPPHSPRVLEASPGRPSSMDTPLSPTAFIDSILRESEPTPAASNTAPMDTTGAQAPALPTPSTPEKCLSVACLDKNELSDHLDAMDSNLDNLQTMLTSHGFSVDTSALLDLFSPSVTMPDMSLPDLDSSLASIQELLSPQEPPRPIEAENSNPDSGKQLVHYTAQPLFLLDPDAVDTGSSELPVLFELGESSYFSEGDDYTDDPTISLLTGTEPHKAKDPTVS
# [2] = target: T2, Sentrin-specific protease 7 (Homo sapiens, UniProt Q9BQF6);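 also: Luminescence-based dose-response confirmation of ultra-high-throughput screening hits, measuring inhibition of SENP7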
# T2 sequence (Q9BQF6 whole entry): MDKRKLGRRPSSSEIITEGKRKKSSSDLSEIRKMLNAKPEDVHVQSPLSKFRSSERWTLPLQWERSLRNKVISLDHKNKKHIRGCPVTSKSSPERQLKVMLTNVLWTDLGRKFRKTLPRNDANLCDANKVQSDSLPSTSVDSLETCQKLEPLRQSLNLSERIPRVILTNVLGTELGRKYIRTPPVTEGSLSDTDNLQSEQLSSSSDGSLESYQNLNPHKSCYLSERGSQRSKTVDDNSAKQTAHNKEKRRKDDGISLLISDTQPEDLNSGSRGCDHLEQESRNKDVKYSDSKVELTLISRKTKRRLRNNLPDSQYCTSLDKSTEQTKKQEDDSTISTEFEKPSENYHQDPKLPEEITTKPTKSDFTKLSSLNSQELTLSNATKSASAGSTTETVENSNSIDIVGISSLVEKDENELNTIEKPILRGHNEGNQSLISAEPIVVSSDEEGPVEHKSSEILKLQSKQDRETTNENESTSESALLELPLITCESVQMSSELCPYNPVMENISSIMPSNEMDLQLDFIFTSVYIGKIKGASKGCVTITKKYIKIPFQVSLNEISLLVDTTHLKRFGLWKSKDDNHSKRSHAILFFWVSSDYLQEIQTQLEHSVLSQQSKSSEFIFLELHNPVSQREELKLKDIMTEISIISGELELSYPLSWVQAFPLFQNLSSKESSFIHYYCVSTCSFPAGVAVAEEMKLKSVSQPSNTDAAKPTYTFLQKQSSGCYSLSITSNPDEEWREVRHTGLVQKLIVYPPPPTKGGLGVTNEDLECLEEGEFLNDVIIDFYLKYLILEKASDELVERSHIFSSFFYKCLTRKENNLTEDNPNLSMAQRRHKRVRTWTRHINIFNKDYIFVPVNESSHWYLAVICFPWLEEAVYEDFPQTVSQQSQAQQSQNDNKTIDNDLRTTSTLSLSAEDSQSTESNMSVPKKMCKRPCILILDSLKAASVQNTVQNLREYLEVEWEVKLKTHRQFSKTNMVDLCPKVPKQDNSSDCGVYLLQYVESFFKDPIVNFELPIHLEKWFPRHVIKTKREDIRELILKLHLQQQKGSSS
# [3] = target: Peroxisome proliferator-activated receptor gamma/Nuclear receptor coactivator 2 (Homo sapiens, UniProt P37231);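 also: agonist potency for raising coactivator recruitment to the receptor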
# Peroxisome proliferator-activated receptor gamma/Nuclear receptor coactivator 2, sequence (P37231 whole entry): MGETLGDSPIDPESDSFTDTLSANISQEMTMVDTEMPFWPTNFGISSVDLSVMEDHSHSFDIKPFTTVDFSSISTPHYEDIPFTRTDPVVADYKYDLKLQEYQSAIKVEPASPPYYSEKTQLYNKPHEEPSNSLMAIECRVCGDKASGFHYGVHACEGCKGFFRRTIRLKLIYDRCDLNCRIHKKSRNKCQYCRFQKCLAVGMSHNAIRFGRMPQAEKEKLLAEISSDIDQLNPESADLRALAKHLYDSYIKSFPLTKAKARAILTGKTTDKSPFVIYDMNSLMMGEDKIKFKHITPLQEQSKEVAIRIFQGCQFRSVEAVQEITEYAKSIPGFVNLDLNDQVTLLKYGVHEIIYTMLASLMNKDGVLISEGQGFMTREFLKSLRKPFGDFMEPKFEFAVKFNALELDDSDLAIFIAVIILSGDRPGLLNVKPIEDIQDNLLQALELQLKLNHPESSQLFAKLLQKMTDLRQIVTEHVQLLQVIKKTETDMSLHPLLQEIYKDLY
# Peroxisome proliferator-activated receptor gamma/Nuclear receptor coactivator 2, sequence (Q15596 whole entry, further chain): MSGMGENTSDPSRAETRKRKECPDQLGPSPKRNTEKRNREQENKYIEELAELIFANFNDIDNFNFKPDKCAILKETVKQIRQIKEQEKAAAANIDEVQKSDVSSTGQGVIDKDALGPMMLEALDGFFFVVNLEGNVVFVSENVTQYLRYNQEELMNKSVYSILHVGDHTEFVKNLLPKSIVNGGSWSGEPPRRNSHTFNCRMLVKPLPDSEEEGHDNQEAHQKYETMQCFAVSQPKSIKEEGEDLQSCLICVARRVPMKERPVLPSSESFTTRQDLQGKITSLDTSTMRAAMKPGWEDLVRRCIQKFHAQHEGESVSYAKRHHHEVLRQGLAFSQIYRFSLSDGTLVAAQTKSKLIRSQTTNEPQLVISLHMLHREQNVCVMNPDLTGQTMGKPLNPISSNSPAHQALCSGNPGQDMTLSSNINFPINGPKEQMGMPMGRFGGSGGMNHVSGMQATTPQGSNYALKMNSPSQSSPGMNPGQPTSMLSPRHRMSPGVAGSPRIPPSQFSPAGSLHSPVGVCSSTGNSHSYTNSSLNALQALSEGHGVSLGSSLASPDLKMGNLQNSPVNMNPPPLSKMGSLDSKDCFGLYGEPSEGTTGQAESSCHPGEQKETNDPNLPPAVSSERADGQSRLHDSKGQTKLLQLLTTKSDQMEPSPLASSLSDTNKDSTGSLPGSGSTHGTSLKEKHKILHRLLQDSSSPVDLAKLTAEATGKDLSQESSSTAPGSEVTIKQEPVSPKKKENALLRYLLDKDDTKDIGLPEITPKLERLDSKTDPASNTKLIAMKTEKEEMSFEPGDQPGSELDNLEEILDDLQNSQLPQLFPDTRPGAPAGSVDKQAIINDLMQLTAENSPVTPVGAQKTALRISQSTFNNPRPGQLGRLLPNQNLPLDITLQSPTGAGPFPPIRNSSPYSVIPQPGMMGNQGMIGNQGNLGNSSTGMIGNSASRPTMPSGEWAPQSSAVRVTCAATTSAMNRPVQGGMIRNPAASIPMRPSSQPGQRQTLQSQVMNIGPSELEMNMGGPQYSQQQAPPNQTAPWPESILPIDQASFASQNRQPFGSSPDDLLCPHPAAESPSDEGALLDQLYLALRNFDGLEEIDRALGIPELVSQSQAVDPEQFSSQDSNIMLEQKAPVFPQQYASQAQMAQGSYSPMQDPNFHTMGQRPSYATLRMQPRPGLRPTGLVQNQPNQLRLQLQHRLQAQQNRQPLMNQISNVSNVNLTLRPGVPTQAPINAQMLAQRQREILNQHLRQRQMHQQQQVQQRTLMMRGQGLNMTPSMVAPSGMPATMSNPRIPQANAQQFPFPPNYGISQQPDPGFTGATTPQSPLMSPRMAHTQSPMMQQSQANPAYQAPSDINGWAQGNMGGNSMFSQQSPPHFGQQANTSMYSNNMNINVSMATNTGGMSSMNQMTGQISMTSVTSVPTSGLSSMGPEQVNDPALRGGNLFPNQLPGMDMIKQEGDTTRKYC
smiles,measurement,setting,value
O=C(Nc1ccccc1Cl)/C(Cl)=C(\Cl)[S+]([O-])c1ccccc1 (stereo not drawn),EC50,[1],3.56 µM (active)
O=C(NC1(O)C(=O)c2ccccc2C1=O)c1ccccc1,IC50,[2],2.99 µM (active)
Cc1cc(C)nc(/N=c2/ssnc2Cl)c1,EC50,[3],> 79.4 µM (not active)
